Experimental data reported in patent publication US20060166900A1, “Salt of morphine-6-glucuronide” (CeNeS Limited, priority 2002, published 2006).

What was measured:
Assay type in all cases: physicochemical
[1] = Stability indicating HPLC assay and related substances on storage (Example 3)
Protocol: Assay (% w/w) and related substances determination
(§1) Each test material was stored between 2-8*C prior to placing on stability. Each material was sub-divided into 900 mg aliquots, transferred to brown opaque HDPE plastic bottles and flushed with Argon prior to sealing. Sufficient samples were provided for each time point as well as spares for each storage condition. The samples were placed in appropriate incubators previously commissioned at storage conditions 25° C./60% RH, 40° C./75% RH and 60° C.
Testing Procedures Test for Identity Content and Impurities
Testing was performed in duplicate (2×25 mg) in accordance with a stability indicating HPLC assay method. The assay results were reported as M6G as is, M6G as the anhydrous, solvent free material and the anhydrous solvent free material corrected for the salt form using the relevant conversion factor.

[2] = Colour of solution by visible spectrophotometry on storage (Example 3); conditions: 5% w/v solution in water
Protocol: Colour of solution by UV spectrophotometry.
as §1
Colour by Visible Spectrophotometry
A 5% w/v solution of test material was prepared in water and the absorbance measured at 420 nm in a 1 cm silica cell using a Unicam UV4 Visible/UV spectrophotometer.

[3] = Water content by Karl Fisher analysis on storage (Example 3)
Protocol: Water content (% w/w) by Karl Fisher analysis
as §1
Water Content by Karl Fisher Analysis
Water content was determined in duplicate on an aliquot of equilibrated material (approximately 100 mg) using a Tritrino 720 KFS Titrator.

[4] = Stability of M6G salts at room temperature over 6 years, HPLC; conditions: for Assay M6G corr.: content calculated as M6G derivative; for degradation / discolouration: storage at room temperature for six years, hydrobromide
[5] = Visual appearance on storage (Example 3)
Protocol: as §1
The samples were stored for analysis according to the following table: […]

[6] = almost 6 years at room temperature
[7] = listed as hydrobromide salt of M6G

## Br.CN1CC[C@]23c4c5ccc(O)c4O[C@H]2[C@@H](O[C@@H]2O[C@H](C(=O)O)[C@@H](O)[C@H](O)[C@H]2O)C=C[C@H]3[C@H]1C5 [Morphine-6-glucuronide hydrobromide]
[1]; 1 month, 25° C./60% RH
  Known Related Substances HN33177: 0.74%
  Known Related Substances HN75083: 0.03%
  M6G Assay, Anhydrous basis: 85.18 % w/w
  M6G Assay, As is basis: 83.02 % w/w
  M6G Assay, Corrected for the salt form: 100.11 % w/w
  Total Known: 0.77%
  Total Related Substances: 0.84%
  Total Unknown: 0.07%
[1]; 1 month, 40° C./75% RH
  Known Related Substances HN33177: 0.74%
  Known Related Substances HN75076: 0.01%
  Known Related Substances HN75083: 0.05%
  M6G Assay, Anhydrous basis: 85.09 % w/w
  M6G Assay, As is basis: 82.40 % w/w
  M6G Assay, Corrected for the salt form: 100.01 % w/w
  Total Known: 0.80%
  Total Related Substances: 0.80%
  Total Unknown: 0.00%
[1]; 1 month, 60° C.
  Known Related Substances HN33177: 0.66%
  Known Related Substances HN67003: 0.10%
  Known Related Substances HN75076: 0.04%
  Known Related Substances HN75083: 0.02%
  M6G Assay, Anhydrous basis: 84.44 % w/w
  M6G Assay, As is basis: 82.82 % w/w
  M6G Assay, Corrected for the salt form: 99.25 % w/w
  Total Known: 0.82%
  Total Related Substances: 1.20%
  Total Unknown: 0.38%
[1]; 3 month assay data
  stability based on % w/w assay: most stable
[1]; 3 months, 25° C./60% RH
  Known Related Substances HN33177: 0.77%
  Known Related Substances HN75083: 0.04%
  M6G Assay, Anhydrous basis: 86.19 % w/w
  M6G Assay, As is basis: 84.30 % w/w
  M6G Assay, Corrected for the salt form: 101.30 % w/w
  Total Known: 0.81%
  Total Related Substances: 0.93%
  Total Unknown: 0.12%
[1]; 3 months, 40° C./75% RH
  Known Related Substances HN33177: 0.70%
  Known Related Substances HN75076: 0.02%
  M6G Assay, Anhydrous basis: 85.85 % w/w
  M6G Assay, As is basis: 83.14 % w/w
  M6G Assay, Corrected for the salt form: 100.90 % w/w
  Total Known: 0.72%
  Total Related Substances: 0.72%
  Total Unknown: 0.00%
  increase in the amount of degradation products as measured by HPLC: basically no increase
[1]; 25° C./60% RH and 40° C./75% RH for 3 months and 60° C. for 1 month
  stability assessment: stable
[1]; Initial
  Known Related Substances HN33177: 0.72%
  Known Related Substances HN67003: 0.04%
  Known Related Substances HN75083: 0.10%
  M6G Assay, Anhydrous basis: 83.63 % w/w
  M6G Assay, As is basis: 82.26 % w/w
  M6G Assay, Corrected for the salt form: 98.29 % w/w
  Total Known: 0.86%
  Total Related Substances: 0.94%
  Total Unknown: 0.08%
[1]; overall review of Example 3 data
  overall stability comparison: more stable than all other salts and the base
[2]; 1 month, 25° C./60% RH
  Colour: 0.073 Abs@420 nm
[2]; 1 month, 40° C./75% RH
  Colour: 0.064 Abs@420 nm
[2]; 1 month, 60° C.
  Colour: 0.261 Abs@420 nm
[2]; 3 months, 25° C./60% RH
  Colour: 0.046 Abs@420 nm
[2]; 3 months, 40° C./75% RH
  Colour: 0.066 Abs@420 nm
[2]; Initial
  Colour: 0.029 Abs@420 nm
[3]; 1 month, 25° C./60% RH
  Moisture: 2.56 % w/w
[3]; 1 month, 40° C./75% RH
  Moisture: 3.19 % w/w
[3]; 1 month, 60° C.
  Moisture: 1.95 % w/w
[3]; 3 months, 25° C./60% RH
  Moisture: 3.28 % w/w
[3]; 3 months, 40° C./75% RH
  Moisture: 4.24 % w/w
[3]; Initial
  Moisture: 2.38 % w/w
[4]; 0 years
  HN-33177: 0.3%
  HN-75083: <0.1%
  Unknown related substances (sum area %): <0.1 area %
  Assay M6G corr.: 90.7%
[4]; 6 years at ambient temperature
  HN-33177: 0.4%
  HN-67002: 0.5%
  HN-67003: 0.2%
  Unknown related substances (sum area %): 1.0 area %
  Assay M6G corr.: 96.3%
[4]; [6]
  largest unidentified peak: ≤ 0.4 area %
  peaks present in the chromatogram that cannot be identified by retention time: 4
[4]; listed as M6G.HBr
  degradation: very limited amount of degradation
  discolouration: no discolouration
[4]; [7]
  degradation: very limited degradation
  discolouration: not discoloured
[5]; 1 month, 25° C./60% RH
  Appearance: White crystalline powder
[5]; 1 month, 40° C./75% RH
  Appearance: White crystalline powder
[5]; 1 month, 60° C.
  Appearance: White crystalline powder
[5]; 3 months, 25° C./60% RH, hydrobromide
  Appearance: White crystalline powder
[5]; 3 months, 25° C./60% RH, listed as hydrobromide, hydrobromide
  Appearance: white crystalline solids
[5]; 3 months, 40° C./75% RH
  Appearance: White crystalline powder
[5]; Initial
  Appearance: White crystalline powder
